{"source": "patent US20250281472A1", "about": "“OPHTHALMIC COMPOSITION INHIBITING OCCURRENCE OF N-OXOPYRIDINE COMPOUND FOR PREVENTING OR TREATING EYE DISEASE” (Samjin Pharmaceutical Co., Ltd., priority 2021, published 2025)", "test": "Long-term storage of the active ingredient as a liquid eye drop (impurity formation)", "format": "physicochemical", "text": "The present invention is to provide a composition capable of providing an eye drop treatment for various eye diseases. For this purpose, the composition has the essential condition of securing the stability of the active ingredient in a liquid state as an eye drop for about six months or more. […] And as a result of confirming a structure of the corresponding impurity, it was confirmed that the impurity is 3-phenyl-4-propyl-1-(N-oxopyridin-2-yl)-1H-pyrazol-5-ol (hereinafter, N-oxopyridine compound), in which an N-oxide structure is formed in a pyridine structure of the active ingredient. If the pH condition is adjusted to a neutral region where the active ingredient is stable, most impurities are controlled to be within about 0.5%. However, it was confirmed that the N-oxopyridine compound drastically increases to a level exceeding about 30% with a decrease in the active ingredient content even when the pH is controlled."}
{"molecule": "CCCc1c(-c2ccccc2)nn(-c2ccccn2)c1O", "note": "[3-phenyl-4-propyl-1-(pyridin-2-yl)-1H-pyrazol-5-ol]", "values": [{"measurement": "level of N-oxopyridine compound", "setting": "liquid eye drop stored about six months or more, long-term storage condition, pH controlled to neutral region", "result": "exceeding 30%"}, {"measurement": "most impurities (other than N-oxopyridine compound)", "setting": "liquid eye drop, pH adjusted to a neutral region", "result": "≤ 0.5", "unit": "%"}]}
